target: T1, minerocorticoid receptor (MR) (Homo sapiens, UniProt P08235); test: soluble minerocorticoid receptor (MR) binding assay, [3H]-aldosterone competition; conditions: 3-4 nM [3H]-aldosterone, 4 °C for 18 hours; Cheng-Prusoff
T1 construct: made in house; host or cells: SF21 insect cells (baculovirus)
T1 sequence (P08235 1-984): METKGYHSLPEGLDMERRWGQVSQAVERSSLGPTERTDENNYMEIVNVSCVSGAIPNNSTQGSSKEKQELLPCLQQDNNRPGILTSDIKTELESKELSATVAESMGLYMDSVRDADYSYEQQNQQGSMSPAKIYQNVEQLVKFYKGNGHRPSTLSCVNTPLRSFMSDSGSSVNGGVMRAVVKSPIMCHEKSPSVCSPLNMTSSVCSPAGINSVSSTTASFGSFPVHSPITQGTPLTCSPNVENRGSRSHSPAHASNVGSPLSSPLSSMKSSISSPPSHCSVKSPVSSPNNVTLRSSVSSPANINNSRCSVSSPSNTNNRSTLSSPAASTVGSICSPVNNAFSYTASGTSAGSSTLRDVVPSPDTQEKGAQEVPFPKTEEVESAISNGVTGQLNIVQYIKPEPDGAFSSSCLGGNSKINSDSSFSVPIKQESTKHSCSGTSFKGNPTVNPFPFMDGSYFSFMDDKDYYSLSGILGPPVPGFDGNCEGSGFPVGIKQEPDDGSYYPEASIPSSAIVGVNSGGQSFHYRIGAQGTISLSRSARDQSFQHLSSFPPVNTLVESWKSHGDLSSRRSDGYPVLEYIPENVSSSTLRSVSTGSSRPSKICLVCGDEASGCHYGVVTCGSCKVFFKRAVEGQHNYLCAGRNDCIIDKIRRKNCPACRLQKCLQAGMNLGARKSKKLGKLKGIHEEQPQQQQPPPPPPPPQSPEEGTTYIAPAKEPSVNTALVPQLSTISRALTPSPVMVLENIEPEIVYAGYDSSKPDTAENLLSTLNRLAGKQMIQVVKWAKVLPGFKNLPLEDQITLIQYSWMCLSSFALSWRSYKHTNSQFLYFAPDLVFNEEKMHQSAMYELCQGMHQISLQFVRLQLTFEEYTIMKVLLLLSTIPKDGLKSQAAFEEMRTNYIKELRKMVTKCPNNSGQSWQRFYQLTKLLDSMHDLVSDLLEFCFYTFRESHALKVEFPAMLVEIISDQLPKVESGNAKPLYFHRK
Text: For soluble minerocorticoid receptor (MR) binding assays, [^3H]-aldosterone (75-85 Ci/mmol) was purchased from New England Nuclear (Boston, MA), aldosterone was purchased from Sigma Chemical Co. (St. Louis, MO), CHAPS and DTT were purchased from Boehringer Mannheim GmbH (W. Germany) and all other reagents were purchased from Sigma.
The methods concerning growth, purification, and assays of recombinant viruses followed the protocol outlined by Summers, M.D., Smith, G.E., A Manual of Methods for Baculovirus Vectors and Insect Cell Culture Procedures, Tex. Agric. Exp. Stn. [Bull], 1987, No. 155, hereby incorporated by reference. The recombinant plasmids were cotransfected into SF21 cells with wild type AcNPV DNA, and the recombinant viruses were plaque purified.
A receptor extract was prepared from the baculovirus system, and aliquots were stored at -80 °C until used. Typical protein concentrations for these extracts were between 10 and 20 mg/ml. Stock solutions of aldosterone or other competing compounds were prepared as either 5 mM ethanol or DMSO stock solutions and serial dilutions were carried out in 1:1 DMSO-ethanol. The assay buffer consisted of the following: 25 mM sodium phosphate, 10 mM potassium fluoride, 20 mM sodium molybdate, 10% glycerol, 2 mM DTT and 0.25 mM CHAPS, pH=7.3 at room temperature.
Receptor assays were performed with a final volume of 250 µL containing from 50-75 µg of extract protein, plus 3-4 nM [^3H]-aldosterone and varying concentrations of competing ligand (0 to 10,000 nM). Assays were set up using a 96-well minitube system and incubations were carried out at 4 °C for 18 hours. Equilibrium under these conditions of buffer and temperature was achieved by 6-8 hours. Nonspecific binding was defined as that binding remaining in the presence of 1000 nM unlabeled aldosterone. At the end of the incubation period, 200 µL of 6.25% hydroxyapatite was added in wash buffer (binding buffer in the absence of DTT and CHAPS). Specific ligand binding to receptor was determined by a hydroxyapatite-binding assay according to the protocol outlined by Wecksler, W.R., Norman, A.W., An Hydroxylapatite Batch Assay for the Quantitation of 1α, 25-Dihydroxyvitamin D3-Receptor Complexes, Anal. Biochem. 1979, 92, 314-323, hereby incorporated by reference. Hydroxyapatite absorbs the receptor-ligand complex, allowing for the separation of bound from free radiolabeled ligand. The mixture was vortexed, incubated for 10 minutes at 4 °C, centrifuged, and the supernatant was removed. The hydroxyapatite pellet was washed twice more with the wash buffer. The amount of receptor-ligand complex was determined by liquid scintillation counting of the hydroxyapatite pellet after the addition of […] EcoScint A scintillation cocktail from National Diagnostics (Atlanta, GA.).
After correcting for nonspecific binding, IC50 values were determined. […] The IC50 values were determined graphically from a log-logit plot of the data. […] Standards are included in each assay and resulting Ki values are determined by use of a modified Cheng-Prusoff equation and used to calculate Ki values for "unknown analogs" as outlined by DeBlasi, A., O'Reilly, K., Motulsky, H.J., Calculating Receptor Number from Binding Experiments Using Same Compound As Radioligand and Competitor, TIPS 1989, 10.227-229, hereby incorporated by reference.

SMILES | Ki
CN(C)c1ccc(C(Sc2ccccc2)c2cc([N+](=O)[O-])ccc2Cl)cc1 (stereo not shown) [Example 54, phenyl-[(4'-dimethylaminophenyl)-(2-chloro-5-nitrophenyl)methyl]thioether] | 2900 nM
CNc1ccc(C(c2ccc(N(C)C)cc2)c2cc([N+](=O)[O-])ccc2Cl)cc1 (stereo not shown) [Example 39, 4'-dimethylamino-4"-methylamino-2-chloro-5-nitrotriphenylmethane] | 2900 nM
CN(C)c1ccc(C(c2ccc(N(C)C)cc2)c2cc([N+](=O)[O-])ccc2Cl)cc1 [Example 1, 4',4" bis(dimethylamino)-2-chloro-5-nitrotriphenylmethane] | 2900 nM
O=[N+]([O-])c1ccc(Cl)c(C(c2ccc(NCc3ccccc3)cc2)c2ccc(NCc3ccccc3)cc2)c1 [Example 36, 4',4" bis(N-benzylamino)-2-chloro-5-nitrotriphenylmethane] | 2900 nM
CN(CCO)c1ccc(C(c2ccc(N(C)CCO)cc2)c2cc([N+](=O)[O-])ccc2Cl)cc1 [Example 32, 4',4" bis(N-(2-hydroxyethyl) N-methylamino)-2-chloro-5-nitrotriphenylmethane] | 3910 nM
CC(=O)OCCN(C)c1ccc(C(c2ccc(N(C)C)cc2)c2cc([N+](=O)[O-])ccc2Cl)cc1 (stereo not shown) [Example 51, 4'-dimethylamino-4"-(N-methyl-N-(2-acetoxyethyl)amino)-2-chloro-5-nitrotriphenylmethane] | > 10000 nM
CNc1ccc(C(c2ccc(NC)cc2)c2cc(Cl)ccc2Cl)cc1 [Example 27, 4',4" bis(methylamino)-2,5-dichlorotriphenylmethane] | > 10000 nM
CN(C)c1ccc(C(c2ccc(N(C)C)cc2)c2cc(Cl)ccc2Cl)cc1 [Example 24, 4',4" bis(dimethylamino)-2,5-dichlorotriphenylmethane] | 2900 nM
CNc1ccc(C(c2ccc(N(C)CCOC(C)=O)cc2)c2cc([N+](=O)[O-])ccc2Cl)cc1 (stereo not shown) [Example 49, 4'-methylamino-4"-(N-(2-acetoxyethyl)-N-methylamino)-2-chloro-5-nitrotriphenylmethane] | 3910 nM
CNc1ccc(C(c2ccc(NC)cc2)c2cc([N+](=O)[O-])ccc2Cl)cc1 [Example 23, 4',4" bis(methylamino)-2-chloro-5-nitrotriphenylmethane] | > 10000 nM
CN(C)c1ccc(C(Oc2ccccc2)c2cc([N+](=O)[O-])ccc2Cl)cc1 (stereo not shown) [Example 52, phenyl-[(4'-dimethylaminophenyl)-(2-chloro-5-nitrophenyl)methyl] ether] | 3110 nM
CN(C)c1ccc(C(c2ccc(N(C)CCO)cc2)c2cc([N+](=O)[O-])ccc2Cl)cc1 (stereo not shown) [Example 42, 4'-dimethylamino-4"-(N-methyl-N-(2-hydroxyethyl)amino)-2-chloro-5-nitrotriphenylmethane] | 2900 nM
CC(=O)OCCN(C)c1ccc(C(c2ccc(N(C)CCOC(C)=O)cc2)c2cc([N+](=O)[O-])ccc2Cl)cc1 [Example 31, 4',4" bis(N-(2-acetoxyethyl) N-methylamino)-2-chloro-5-nitrotriphenylmethane] | 3910 nM

— patent publication EP1100483B1, “GLUCOCORTICOID-SELECTIVE ANTI-INFLAMMATORY AGENTS” (Abbott Laboratories, priority 1998, dated 2000)
